Patent US20240252516A1, “COMBINATION BPH THERAPY WITH FEXAPOTIDE TRIFLUTATE, A 5-ARI, AND AN ALPHA BLOCKER” (Nymox Corporation, priority 2023, published 2024)
Ends that are not written are not given here.

Experiments:
[1] = tested on: benign prostatic hyperplasia; details: McConnell et al.; cited from earlier work
5α-reductase = details: blood; cited from earlier work
[2] = tested on: α1- than α2-adrenergic receptors; details: α1 versus α2 selectivity; cited from earlier work
[3] = tested on: prostate glandular epithelial cells; test: Tissue culture genetic array, in vitro pathway activation; type: cell-based
Excerpt: FT is a new molecular entity which in vitro stimulates caspase pathways (activation of caspases 7, 8, and 10, caspase recruitment domains 6, 11, and 14, and DIABLO), tumor necrosis factor pathways (activation of TNF1, TNFSF6, TNFSF8, TNFSF9, CD70 ligands, and TNFRSF19L, TNFRSF25, TRAF2, TRAF3, TRAF4, TRAF6 receptors), and BCL pathways (activation of BIK, HRK, BCL2L10 and BCL3) in prostate glandular epithelial cells, based on tissue culture genetic array data. FT selectively causes loss of cell membrane integrity, mitochondrial metabolic arrest, depletion of RNA, DNA lysis and aggregation, and cell fragmentation and cell loss. The apoptotic process leads to typical ultrastructural progressive changes of membranous disruption and swelling, progressively deepening nuclear invaginations with eventual membranous bleb formations and cell death and fragmentation into apoptotic bodies. Histologically, typical apoptotic changes with positive immunohistochemical staining of markers for apoptosis are found throughout the injected areas for up to several weeks after treatment.

patients with BPH = test: Clinical trial in men with BPH: International Prostate Symptom Score (IPSS) change from baseline; type: in vivo, human; details: oral medication together with placebo PBS injection, >2 years after treatment
Procedure: Clinical trials were conducted on numerous individuals having BPH. All protocols were done in accordance with applicable regulations, and carried out by physicians.
In a study of 978 men, patients with BPH were first administered a course of antibiotics for a period of 2-4 weeks, and then given an intraprostatic injection of either a) 10 ml of FT in phosphate buffered saline (concentration of 0.25 mg/ml), pH 7.2 (“PBS”) or b) PBS alone, under double-blind conditions by a urologist in an office setting under ultrasound guidance. Each patient was followed for a number of years with regular physical examinations, laboratory tests, and evaluations of symptoms. Symptomatic evaluation was measured by the International Prostate Symptom Score (IPSS) which is a quantitative scale used to gauge prostatic symptomatic improvement or worsening. The IPSS quantifies the following: 1) incomplete bladder emptying after urination; 2) frequent urination; 3) stopping and starting during urination; 4) urgent need to urinate; 5) weakness of urinary stream; 6) need to push or strain during urination; 7) need to urinate after going to sleep at night (nocturia). […]
Using the results from the above tables, the average mean IPSS improvement of the respective medications, or combinations of medications can be determined, as well as the percent improvement in mean IPSS when compared to the average of the actives. […]

BPH patients = details: CombAT trial, after 2 years; cited from earlier work

COc1cc2nc(N3CCN(C(=O)C4COc5ccccc5O4)CC3)nc(N)c2cc1OC (centres unmarked) [doxazosin, 1-(4-amino-6,7-dimethoxy-2-quinazolinyl)-4-[(2,3-dihydro-1,4-benzodioxin-2-yl)carbonyl]piperazine]
long term (4 year) mean IPSS improvement [1]: 6.6

CC(C)(C)NC(=O)[C@H]1CC[C@H]2[C@@H]3CC[C@H]4NC(=O)C=C[C@]4(C)[C@H]3CC[C@]12C [finasteride]
long term (4 year) mean IPSS improvement [1]: 5.6
reduction in circulating DHT levels (5α-reductase): 65 to 70%

Cc1ccc(N(CC2=NCCN2)c2cccc(O)c2)cc1 [phentolamine]
potency in inhibiting α1- than α2-adrenergic receptors [2]: three to five times more potent

Ile-Asp-Gln-Gln-Val-Leu-Ser-Arg-lle-Lys-Leu-Glu-lle-Lys-Arg-Cys-Leu (IDQQVLSRIKLEIKRCL; also: trifluoroacetate salt) [FT, 1: …]
BCL pathways (BIK, HRK, BCL2L10, BCL3) [3]: stimulates
caspase pathways (caspases 7, 8, 10, caspase recruitment domains 6, 11, 14, DIABLO) [3]: stimulates
tumor necrosis factor pathways (TNF1, TNFSF6, TNFSF8, TNFSF9, CD70 ligands, TNFRSF19L, TNFRSF25, TRAF2, TRAF3, TRAF4, TRAF6 receptors) [3]: stimulates

CN1CC(=O)N2[C@H](c3ccc4c(c3)OCO4)c3[nH]c4ccccc4c3C[C@@H]2C1=O [PDE5 Inhibitor, tadalafil]
Mean IPSS Improvement, oral meds alone (patients with BPH): 4.67

CCOc1ccccc1OCCN[C@H](C)Cc1ccc(OC)c(S(N)(=O)=O)c1 [tamsulosin, (R)-5-(2-{[2-(2-Ethoxyphenoxy)ethyl]amino}propyl)-2-methoxybenzene-1-sulfonamide]
mean decrease in IPSS from baseline (BPH patients): 4.3

C[C@]12C=CC(=O)N[C@@H]1CC[C@@H]1[C@@H]2CC[C@]2(C)[C@@H](C(=O)Nc3cc(C(F)(F)F)ccc3C(F)(F)F)CC[C@@H]12 [dutasteride, 17β-N-(2,5-bis(Trifluoromethyl))phenylcarbamoyl-4-aza-5α-androst-1-en-3-one]
mean decrease in IPSS from baseline (BPH patients): 4.9
reduction in circulating DHT levels (5α-reductase): up to 98%
